Results from paper PMC9307983 (Acta Naturae, 2022).
Like-named read-outs stand apart in the source and are kept apart here. Marks after values point to notes of the source that are not given here.

How the values were obtained:
[1] = target: T1, MGL, Ser339Ala (Citrobacter freundii, UniProt Q84AR1, S339A); assay type: biochemical; conditions: for Km / kcat: Ser339Ala MGL, 30°C, pH 8.0, coupled with HOHxoDH or LDH; for specific activity: Ser339Ala MGL samples of 95% purity, 30 mM substrate, pH 8.0
Protocol: The homogeneity of samples was examined by PAGE electrophoresis under denaturing conditions. During purification, activity was determined in the β-elimination reaction; activity of the final sample was determined in β- and γ-elimination reactions. […] The amount of enzyme that catalyzes the formation of […] of keto acid was defined as the unit of enzymatic activity.
(§1) The kinetic parameters of the γ- and β-elimination reactions were determined at 30°C in the conjugate reaction with HOHxoDH or LDH based on a decrease in NADH absorbance at 340 nm (Δε = 6,220 M^–1cm^–1). The reaction mixtures contained a 100-mM potassium phosphate buffer, pH 8.0, 0.1 mM PLP, 1 mM DTT, 0.2 mM NADH, 70 μg HOHxoDH or 10 U LDH, and variable amounts of the substrate in a total volume of 1 mL. The reaction was initiated by the addition of 10 μg of the enzyme.
(§2) The kinetic parameters were calculated according to the Michaelis–Menten equation using the EnzFitter software. In the calculations, an enzyme subunit molecular weight of 43 kDa was used. The inhibition constants were also determined using the EnzFitter software.

[2] = tested on: MGL, wild type; conditions: cited from earlier work
[3] = target: T1, MGL, Ser339Ala; test: biochemical; assay type: biochemical; conditions: for Ki: Ser339Ala MGL, γ-elimination of L-methionine, 30°C, pH 8.0, read-out: K I (inhibition constant); for type of inhibition of the physiological reaction: mutant enzyme (Ser339Ala MGL)
Protocol: as §1, §2

[4] = target: T1, MGL, Ser339Ala; assay type: biochemical; conditions: for kex, α-H (exchange rate of C-α-proton) / kex, β-H (exchange rate of C-β-protons): Ser339Ala MGL, D2O, pD 7.6, 30°C, L-alanine 144.23 mM, L-norleucine 98.04 mM; for Number of exchanged C-α-protons / Number of exchanged C-β-protons: common to wild type and Ser339Ala MGL
Protocol: The kinetics of isotope exchange reactions of the C-α- and C-β-protons for deuteron in inhibitors, catalyzed by the mutant form, was detected using 1H NMR spectroscopy. The reaction was conducted in D2O containing 50 mM potassium phosphate (pD = 7.6), 0.1 mM PLP, and an inhibitor in a total volume of 0.5 mL at 30°C at L-alanine and L-norleucine concentrations of 144.23 mM and 98.04 mM, respectively. The reaction was initiated by adding 0.3–0.7 mg of the enzyme. 1H NMR spectra were recorded at fixed time intervals on a Bruker AMXIII-400 spectrometer at an operating frequency of 400 MHz. The signals of the C-α- and C-β-protons were integrated using the modified Enzkin computer program, which is a part of the XWIN-NMR programs. The kinetic curves of the yields of deuterated products were processed according to the method described in [39]. […]

[5] = target: MGL, wild type; parameters: method as in PMID 21166645; conditions: cited from earlier work; for Ki: wild type MGL, γ-elimination of L-methionine, read-out: K I (inhibition constant); for type of inhibition of the physiological reaction: wild-type enzyme
[6] = tested on: MGL, wild type; conditions: cited from earlier work; remark: listed apart in the source
[7] = target: wild-type MGL; conditions: read-out: dissociation constant of the PLP complex; cited from earlier work
[8] = wild type MGL, substrate of elimination reaction

Row | Compound | Km [1] [µM] | kcat [1] [s^–1] | Km [2, 8] [µM] | kcat [2, 8] | type of inhibition of the physiological reaction [3] | Ki [5] [mM] | type of inhibition of the physiological reaction [5] | also measured
1 | NC(CCS)C(=O)O (racemic) [DL-Hcy] | 3390 ± 340 | 0.28 ± 0.009 | 970 ± 150 | 8.51 ± 0.41* s^–1 |  |  |  | 
2 | NCC(=O)O [Gly, glycine] |  |  |  |  | competitive inhibitors | 48.5 ± 4.37 | competitive inhibitors | Ki [3]: 22.9 ± 2.84 mM; kex, α-H (exchange rate of C-α-proton) [4]: 0.078 s⁻¹; exchange of the pro-(S) proton ([4]; mutant form, long incubation in D2O (led to inactivation of the enzyme)): unable to detect any exchange; kex, α-H (exchange rate of C-α-proton) [6]: 20.2* s^-1
3 | C[C@H](N)C(=O)O [L-Ala, L-alanine] |  |  |  |  | competitive inhibitors | 3.41 ± 0.4 | competitive inhibitors | kex, α-H (exchange rate of C-α-proton) [4]: 0.387 s⁻¹; kex, β-H (exchange rate of C-β-protons) [4]: 0.116 s⁻¹; Number of exchanged C-α-protons [4]: 1; Number of exchanged C-β-protons [4]: 3; kex, α-H (exchange rate of C-α-proton) ([6]; wild type MGL): 2.71* s^-1; kex, β-H (exchange rate of C-β-protons) ([6]; wild type MGL): 2.63* s^-1
4 | CSCC[C@H](N)C(=O)O [L-Met, L-methionine] |  |  | 700 ± 110 | 6.2 ± 0.42* s^–1 |  |  |  | specific activity [1]: 0.31 U/mg
5 | CCCC[C@H](N)C(=O)O [L-Nle, L-norleucine] |  |  |  |  | competitive inhibitors | 0.6 ± 0.06 | competitive inhibitors | Ki [3]: 0.89 ± 0.09 mM; kex, α-H (exchange rate of C-α-proton) [4]: 0.46 s⁻¹; kex, β-H (exchange rate of C-β-protons) [4]: 0.12 s⁻¹; Number of exchanged C-α-protons [4]: 1; Number of exchanged C-β-protons [4]: 2; kex, α-H (exchange rate of C-α-proton) ([6]; wild type MGL): 41.8* s^-1; kex, β-H (exchange rate of C-β-protons) ([6]; wild type MGL): 4.74* s^-1
6 | CCC[C@H](N)C(=O)O [L-Nva, L-norvaline] |  |  |  |  | competitive inhibitors | 4.6 ± 0.43 | competitive inhibitors | Ki [3]: 1.7 ± 0.32 mM
7 | CC[C@H](N)C(=O)O [L-α-Abu, L-α-aminobutyric acid] |  |  |  |  | competitive inhibitors | 8.01 ± 0.76 | competitive inhibitors | Ki [3]: 4.66 ± 0.51 mM
8 | CC(=O)OCC[C@H](N)C(=O)O [O-Ac-L-Hse, O-acetyl-L-homoserine] | 2070 ± 220 | 0.77 ± 0.011 | 2910 ± 180 | 2.1 ± 0.053** s^–1 |  |  |  | 
9 | CC(=O)OC[C@H](N)C(=O)O [O-Ac-L-Ser] | 16400 ± 1090 | 0.047 ± 0.001 | 4280 ± 330 | 2.13 ± 0.037*** s^–1 |  |  |  | 
10 | Cc1ncc(COP(=O)(O)O)c(C=O)c1O [PLP, pyridoxal 5’-phosphate] |  |  |  |  |  |  |  | Kd [7]: 0.000624 mM
11 | CCSCC[C@H](N)C(=O)O [S-Et-L-Hcy] | 540 ± 37 | 0.16 ± 0.0016 | 540 ± 10 | 6.78 ± 0.02* s^–1 |  |  |  | 
12 | S-benzyl-L-cysteine [S-Bzl-L-Cys] | 5760 ± 590 | 1.81 ± 0.094 |  | 8.16 ± 0.23* s^–1 |  |  |  | Km [2]: 180 ± 20 µM
13 | S-ethyl-L-cysteine [S-Et-L-Cys] | 6470 ± 540 | 0.67 ± 0.024 |  | 5.03 ± 0.16* s^–1 |  |  |  | specific activity [1]: 1.03 U/mg; Km [2]: 170 ± 20 µM
14 | S-methyl-L-cysteine [S-Met-L-Cys] | 21800 ± 2250 | 0.41 ± 0.018 | 710 ± 110 | 4.6 ± 0.29* s^–1 |  |  |  | 
